According to patent US12404486B1, “Aspergillus oryzae JAAS-32 and use thereof in preparation of larval Hermetia illucens paste protein peptide” (Jiangsu Academy of Agricultural Sciences, priority 2024, dated 2025):

Experiments:
Experiment in all cases: Oxford cup inhibition zone test of antibacterial Hermetia illucens peptide
Type in all cases: cell-based
Conditions in all cases: positive control, 1 mg/ml of chloramphenicol
[1] = tested on: Escherichia coli
From the text: (§1) Article number (Art. No.) of Staphylococcus aureus: CICC 10306; Art. No. of Escherichia coli: CICC 10372; Art. No. of Vibrio alginolyticus: CICC 10484.
(§2) 1. Extraction of the Antibacterial Peptide of the Larval Hermetia Illucens Paste
(§3) (1) Preparation of an antibacterial peptide extraction solution (10% acetic acid and 0.01 mol/L Na2EDTA).
(§4) (2) The fermentation liquor of larval Hermetia illucens paste in the untreated group and the Aspergillus oryzae fermentation group of Example 2 was mixed with the antibacterial peptide extraction solution well (v: v=1:10), respectively, and liquid-solid extracted for half an hour at 200 rpm and 37° C., then transferred to a centrifugal machine (3500 rpm, 25 min); supernatant was collected as a crude extraction solution of the antibacterial peptide. The crude extraction solution was further frozen-dried to obtain the antibacterial Hermetia illucens peptide.
(§5) 2. Determination of Antibacteral Activity of the Antibacterial Hermetia Illucens Peptide
(§6) […] The concentration of the Staphylococcus aureus solution and Escherichia coli solution as well as Vibrio alginolyticus solution was determined 1.0×10^9 CFU/mL, 1.0×10^9 CFU/mL, and 1.0×10^7 CFU/mL, respectively; proper amount of the Staphylococcus aureus solution and Escherichia coli solution were absorbed and evenly coated on LB media, and the Vibrio alginolyticus solution was coated on a TCBS plate. An Oxford cup having a diameter of 7.5 mm was slightly placed on the LB plate, added with an equivalent amount of the antibacterial Hermetia illucens peptide, and cultured in a 37° C. thermostatic incubator for 10 hours, then the diameter of inhibition zones was observed and measured.

[2] = tested on: Staphylococcus aureus
From the text: as §1, §2, §3, §4, §5, §6

[3] = tested on: Vibrio alginolyticus
From the text: as §1, §2, §3, §4, §5, §6

O=C(N[C@H](CO)[C@H](O)c1ccc([N+](=O)[O-])cc1)C(Cl)Cl [chloramphenicol]
Diameter of inhibition zone [1]: 17 mm | Diameter of inhibition zone [2]: 16 mm | Diameter of inhibition zone [3]: 26 mm
